Reference: patent US12404232B2, “Compounds and compositions for intracellular delivery of therapeutic agents” (ModernaTX, Inc., priority 2015, dated 2025)

Tests used:
[1] = tested on: rats; assay: Cytokine induction (IP-10) in rats after intravenous administration; type: in vivo; settings: rat, 6 hours after administration of hEPO nanoparticle compositions, 2.0 mpk
Description: The expression of hEPO and cytokine induction in rats intravenously administered a nanoparticle composition at a dose of 2.0 mpk was measured at 6 h.
(§1) Table 19 summarizes the hEPO expression, IP-10 induction, liver and spleen levels, and alanine aminotransferase (ALT) and aspartate aminotransferase (AST) measured upon intravenous administration of formulations including Compounds 48, 49, and 50 to rat at 0.2 and 2 mpk and hEPO mRNA. hEPO concentrations were measured 6 hours after administration, while cytokine induction and liver and spleen levels were measured 48 hours after administration. hEPO and IP-10 concentrations are presented in pg/ml, while liver levels are provided in ng/g. ALT and AST levels are presented in international units.

[2] = tested on: rat; assay: Clinical chemistry and hematology in rat after intravenous administration; type: in vivo; set-up: unit not given here; settings: 2 mpk, 48 h post dose
Description: Sample formulations of nanoparticle compositions including different lipids were administered intravenously to rat at a dose of 2 mpk. The expression of various clinical markers was evaluated at 48 h post dose and compared to that induced by administration of MC3 formulations or phosphate buffered saline (PBS).
as §1

[3] = tested on: rats; assay: Residual lipid levels in liver and spleen of rats (UPLC-MS quantification); type: in vivo, rat; settings: rats, 2 mpk, 48 h; assuming 300 g rat and 15 g liver
Description: At 48 h liver tissue was harvested for lipid quantification. To pre-weighed tissues, Milli-Q water was added (900 μL water per 100 mg tissue). Tissues were homogenized using an Omni probe homogenizer until uniform. 50 μL of samples and matrix calibration standards were aliquoted into a 96-well plate. 50 μL of blank matrix for matrix blanks and control blanks were aliquoted. 400 μL IS spiking solution were manually added to all samples except matrix blanks. 400 μL of 50:50 ACN:IPA were manually added to matrix blanks. The plate was covered and the samples vortexed and centrifuged for 5 minutes at >3000 rpm. 200 μL of the samples were transferred into a clean 96-well plate for analysis. Samples were analyzed on a Waters Acquity UPLC using a Higgins Analytical Clipeus C8 column ([…], 30×2.1 mm) and a gradient of either 70-95% or 60-95% (Mobile Phase A: 5 mM ammonium formate in 50:50:1 H2O:MeOH:formic acid; Mobile Phase B: 5 mM ammonium formate in 100:1 MeOH:formic acid) over 1.3 min at 1.2 mL/min (column temperature 55° C.). Detection was based on electrospray ionization (ESI) in positive mode using a Sciex API5500 Mass Spectrometer.
The expression of hEPO in rats intravenously administered a nanoparticle composition at a dose of 0.2 mpk or 2.0 mpk was measured at 6 hours. Table 16 summarize the ratio of hEPO expression levels using various nanoparticle compositions as compared to the hEPO expression level using MC3 formulation and the lipid levels in the liver measured 48 hours after administration, as described above. Tables 17 and 18 summarize the lipid levels in the liver and spleen measured 48 hours after administration of Compounds 28, 33, 53, and 54. Liver and spleen levels represent the average values calculated for 3 rats in each group. As is shown in Tables 17 and 18, less than 10% of Compounds 28, 33, 53, and 54 remained in the liver after 48 hours, while greater than 60% of MC3 remained.
as §1
The expression of hEPO induced by intravenous administration to rats of nanoparticle compositions at various doses was measured at 2, 4, 6, 8, 24, and 48 hour time points. FIGS. 3-6 respectively summarize the hEPO expression measured upon intravenous administration of formulations including Compounds 26, 18, 25, and MC3 to rat at various doses. The lipid levels of Compound 26 in the liver after 48 hours were about 19%.
The expression of hEPO and lipid levels in the liver and spleen in rats intravenously administered a nanoparticle composition at a dose of 0.2 mpk was measured at various timepoints. Compounds 18 and 25 were selected for comparison with MC3. Lipids were formulated according to the standard MC3 formulation described above. Rats were administered intravenously a single 0.2 mpk dose and expression monitored at 0.25, 0.5, 1, 2, 4, 8, 24, and 48 hours after administration.

[4] = tested on: mice; assay: Luc expression (total flux) after intramuscular administration; type: in vivo; settings: 6 hours after intramuscular administration, Luc mRNA and H10 mRNA
[5] = tested on: mice; assay: Cytokine induction (IL-6, IP-10) in mice after intravenous administration; type: in vivo; set-up: IL-6 / IP-10: unit not given here; settings: 0.5 mpk, 6 hours
Outline: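 Nanoparticle compositions given intravenously to mice at 0.5 mpk; serum cytokine concentrations measured at 6 hours, with MC3 formulation and PBS as comparators.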

Compound | IP-10 [1] [pg/mL] | Alanine aminotransferase (Concentration) [2] | Aspartate aminotransferase (Concentration) [2] | Lymphocytes (Concentration) [2] | Monocytes (Concentration) [2] | Neutrophils (Concentration) [2] | % Lipid Remaining in liver, 48 h* 2 mpk [3] [%] | Total flux (p/s) 0.001 mpk Dose [4] [p/s] | Total flux (p/s) 0.01 mpk Dose [4] [p/s] | IL-6 [5] | IP-10 [5]
CCCCCCCCCN(CCO)CCCCCCCC(=O)OC(CCCCCCCC)CCCCCCCC [Compound 3, Heptadecan-9-yl 8-((2-hydroxyethyl)(nonyl)amino)octanoate] | 542 | 53.5 | 87.5 | 12051 | 2103 | 3388.5 | 14 | 3.58E+06 | 4.95E+07 | – | –
CCCCCC/C=C\COC(=O)CCCCCCCN(CCO)CCCCCCCC(=O)OC(CCCCCCCC)CCCCCCCC [Compound 24, Heptadecan-9-yl (Z)-8_((2-hydroxyethyl) (8-(non-2-en-1-yloxy)-8-oxooctyl)amino)octanoate] | 323.5 | 51.5 | 90 | 14100 | 1834 | 1790.5 | 0.016 | 3.78E+06 | 3.97E+07 | 163.53 | 1172.93
CCCCCCCCCOC(=O)CCCCCCCN(CCO)CCCCCCCOC(=O)C(CCCCCCCC)CCCCCCCC [Compound 30, 7-((2-Hydroxyethyl)(8-(nonyloxy)-8-oxooctyl)amino)heptyl 2-octyldecanoate] | 214.5 | 56 | 95 | 10408.5 | 877 | 3195 | <0.01 | 2.47E+06 | 3.77E+07 | 152.51 | 1638.77
